Measured values from PMC4548482 (Neuropharmacology, 2015).

Legend:
[1] = target: T1, human α7 nAChRs (Homo sapiens, UniProt P36544); assay: Two-electrode voltage-clamp recording, wild-type human α7 nAChRs expressed in Xenopus oocytes; format: cell-based; settings: for Fold potentiation: Human α7, maximum fold potentiation of responses to an EC50 of acetylcholine (100 μM), mean ± SEM; for Imax: Wild-type α7, normalised to the maximum response to acetylcholine; for Effect on rate of desensitisation of acetylcholine-evoked responses: wild-type α7, acetylcholine 100 μM, pre- and co-application of PAM
T1 construct: expressed in transfected cells; host or cells: Xenopus laevis oocytes (cRNA injection)
Method: All plasmid constructs used in this study have been described previously.
(§1) Oocytes were isolated from adult female Xenopus laevis following procedures that have been approved by UCL's Biological Services Management Group and the UK Home Office. […] Heterologous expression was achieved by injection of wild-type or mutated α7 cRNA (6–12 ng) into oocyte cytoplasm. Oocytes were injected in a volume of 20–30 nl using a Drummond variable volume microinjector. […] Experiments were performed on oocytes after 3–5 days of incubation.

[2] = target: T2, human α4β2 nAChRs (Homo sapiens, UniProt P17787+P43681); assay: Two-electrode voltage-clamp recording, human α4β2 nAChRs in Xenopus oocytes; format: cell-based; set-up: concentration or dose not given beside the values; settings: inhibition of agonist-evoked responses, mean ± SEM
T2 construct: expressed in transfected cells; host or cells: Xenopus laevis oocytes
Text: (§2) All plasmid constructs used in this study have been described previously. These include plasmids containing cDNAs encoding human α3, α4, α7, β2 and β4 nAChR subunits in pSP64GL ([Broadbent et al., 2006]); rat α7 nAChR subunit in pcDNA3 ([Cooper and Millar, 1997]); α7/5-HT3A subunit chimera (containing the rat α7 N-terminal domain and mouse 5-HT3A transmembrane and C-terminal domain) in pcDNA3 ([Cooper and Millar, 1998]); human RIC-3 in pRK5 ([Lansdell et al., 2005]) and mouse 5-HT3A ([Maricq et al., 1991]) in pRK5.
(§3) Oocytes were isolated from adult female Xenopus laevis following procedures that have been approved by UCL's Biological Services Management Group and the UK Home Office. Oocytes were defolliculated as described previously ([Young et al., 2007]) by treatment with collagenase (2 mg/ml; Worthington Biochemicals, Freehold, NJ) in calcium-free Barth's solution containing 88 mM NaCl, 2.4 mM NaHCO3, 1 mM KCl, 0.82 mM MgSO4, and 15 mM Tris, pH 7.5. Heterologous expression was achieved by injection of wild-type or mutated α7 cRNA (6–12 ng) into oocyte cytoplasm. Oocytes were injected in a volume of 20–30 nl using a Drummond variable volume microinjector. After injection, oocytes were incubated at 18 °C in a calcium-containing Barth's solution (composition, as above, but with 0.77 mM CaCl2) supplemented with antibiotics (100 units/ml penicillin, 100 μg/ml streptomycin, 4 μg/ml kanamycin, and 50 μg/ml tetracycline). Experiments were performed on oocytes after 3–5 days of incubation. […] Two-electrode voltage-clamp recordings were performed (with the oocyte membrane potential held at −60 mV), as described previously ([Gill et al., 2012; Young et al., 2007]).

[3] = target: T3, human α3β4 nAChRs (Homo sapiens, UniProt P30926+P32297); assay: Two-electrode voltage-clamp recording, human α3β4 nAChRs in Xenopus oocytes; format: cell-based; set-up: concentration or dose not given beside the values; settings: inhibition of agonist-evoked responses, mean ± SEM
T3 construct: expressed in transfected cells; host or cells: Xenopus laevis oocytes
Text: as §2, §3

[4] = target: T4, rat α7 nAChRs (Rattus norvegicus, UniProt Q05941); assay: Two-electrode voltage-clamp recording, rat α7 nAChRs in Xenopus oocytes; format: cell-based; settings: mean ± SEM
T4 construct: expressed in transfected cells; host or cells: Xenopus laevis oocytes
Text: as §2, §3

[5] = target: T5, mouse 5-HT3A (Mus musculus, UniProt P23979); assay: Two-electrode voltage-clamp recording, mouse 5-HT3ARs in Xenopus oocytes; format: cell-based; set-up: concentration or dose not given beside the values; settings: inhibition of agonist-evoked responses, mean ± SEM
T5 construct: expressed in transfected cells; host or cells: Xenopus laevis oocytes
T5 sequence (P23979 24-489): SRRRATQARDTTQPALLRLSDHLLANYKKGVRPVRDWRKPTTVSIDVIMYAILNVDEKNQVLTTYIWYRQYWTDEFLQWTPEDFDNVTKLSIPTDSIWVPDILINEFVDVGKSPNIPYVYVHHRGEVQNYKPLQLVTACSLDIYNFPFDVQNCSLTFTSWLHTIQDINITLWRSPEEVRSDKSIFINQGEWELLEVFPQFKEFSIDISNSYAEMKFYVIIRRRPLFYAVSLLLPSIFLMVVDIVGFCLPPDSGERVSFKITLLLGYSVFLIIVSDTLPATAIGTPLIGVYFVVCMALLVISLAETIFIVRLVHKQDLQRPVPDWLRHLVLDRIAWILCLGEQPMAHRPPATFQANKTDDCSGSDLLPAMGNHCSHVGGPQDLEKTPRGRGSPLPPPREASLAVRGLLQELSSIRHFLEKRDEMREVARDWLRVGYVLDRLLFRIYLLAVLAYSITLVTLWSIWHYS
Text: as §2, §3

[6] = target: T6, α7/5-HT3A subunit chimera (rat α7 N-terminal domain, mouse 5-HT3A transmembrane and C-terminal domain) (UniProt P23979+Q05941, M226I/T225I); assay: Two-electrode voltage-clamp recording, α7/5-HT3A subunit chimera in Xenopus oocytes; format: cell-based; set-up: concentration or dose not given beside the values; settings: α7/5-HT3A chimera; inhibition of agonist-evoked responses; mean ± SEM
T6 construct: containing the extracellular/N-terminal domain of the rat α7 nAChR subunit; the transmembrane/C-terminal domain of the mouse 5-HT3A subunit; expressed in transfected cells; host or cells: Xenopus laevis oocytes
Text: as §2, §3

[7] = target: T7, α7 L247T nAChRs (Homo sapiens, UniProt P36544, L270T); assay: Two-electrode voltage-clamp recording, human α7 nAChRs containing the L247T mutation in Xenopus oocytes; format: cell-based; settings: α7 L247T; for nH (Hill coefficient) / EC50: mean ± SEM; for EC50: read-out: EC50 (agonist); for Imax: normalised to the maximum response to acetylcholine
T7 construct: expressed in transfected cells; host or cells: Xenopus laevis oocytes (cRNA injection)
Method: (§4) Site-directed mutagenesis was performed on human nAChR α7 subunit cDNA in plasmid pSP64GL using the QuikChange mutagenesis kit (Stratagene) and verified by nucleotide sequencing. Plasmid pSP64GL containing wild-type or mutated human α7 cDNA was linearized with BamHI and purified with QIAQuik PCR purification kit (Qiagen). In vitro synthesis of cRNA was performed using mMessage mMachine SP6 transcription kit (Life Technologies).
as §1

[8] = target: T8, α7 M260L nAChRs (Homo sapiens, UniProt P36544, M283L); assay: Two-electrode voltage-clamp recording, human α7 nAChRs containing the M260L mutation in Xenopus oocytes; format: cell-based; settings: for Fold potentiation (maximum peak response compared to acetylcholine alone): acetylcholine 100 μM, pre- and co-application of modulator (10 μM); for Agonist effect on M260L receptors: compound applied alone; for Imax: normalised to the maximum response to acetylcholine
T8 construct: expressed in transfected cells; host or cells: Xenopus laevis oocytes (cRNA injection)
Method: as §4, §1

[9] = target: T1, human α7 nAChRs; format: binding; settings: [3H]-α-bungarotoxin 1 nM; tsA201 cells
[10] = wild-type α7 desensitised by continued acetylcholine (100 μM), compound 10 μM
[11] = M260L α7, type I PAM 10 μM pre-applied for 10 s then co-applied, n = 3

T6 sequence (Q05941+P23979 fused Q05941:T225I/Q05941:M226I): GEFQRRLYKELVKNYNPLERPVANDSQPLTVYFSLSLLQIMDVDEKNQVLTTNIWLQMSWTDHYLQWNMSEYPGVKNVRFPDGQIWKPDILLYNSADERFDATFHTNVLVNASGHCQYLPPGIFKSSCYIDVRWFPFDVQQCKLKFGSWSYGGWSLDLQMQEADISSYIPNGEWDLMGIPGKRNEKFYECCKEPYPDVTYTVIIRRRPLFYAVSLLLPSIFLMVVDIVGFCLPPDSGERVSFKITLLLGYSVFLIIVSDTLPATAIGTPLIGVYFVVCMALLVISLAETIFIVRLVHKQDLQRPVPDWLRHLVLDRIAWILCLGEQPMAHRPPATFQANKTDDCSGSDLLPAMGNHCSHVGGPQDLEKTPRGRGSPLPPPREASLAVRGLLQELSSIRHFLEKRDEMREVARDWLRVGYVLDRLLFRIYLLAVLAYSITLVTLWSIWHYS
T8 sequence (P36544 23-502 M283L): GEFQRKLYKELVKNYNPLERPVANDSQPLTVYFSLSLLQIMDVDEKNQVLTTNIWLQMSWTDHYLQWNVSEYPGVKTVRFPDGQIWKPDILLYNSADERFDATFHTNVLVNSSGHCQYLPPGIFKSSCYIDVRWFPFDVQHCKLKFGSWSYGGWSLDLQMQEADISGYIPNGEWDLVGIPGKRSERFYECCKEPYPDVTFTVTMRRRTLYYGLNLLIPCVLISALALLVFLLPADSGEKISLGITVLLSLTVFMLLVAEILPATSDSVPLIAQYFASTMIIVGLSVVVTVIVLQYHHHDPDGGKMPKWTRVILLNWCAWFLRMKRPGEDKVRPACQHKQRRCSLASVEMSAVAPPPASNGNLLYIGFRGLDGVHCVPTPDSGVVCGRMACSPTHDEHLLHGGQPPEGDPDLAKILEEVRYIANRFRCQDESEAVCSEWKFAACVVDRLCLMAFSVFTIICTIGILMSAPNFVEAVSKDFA
T2 sequence (P43681 29-627 limits assumed): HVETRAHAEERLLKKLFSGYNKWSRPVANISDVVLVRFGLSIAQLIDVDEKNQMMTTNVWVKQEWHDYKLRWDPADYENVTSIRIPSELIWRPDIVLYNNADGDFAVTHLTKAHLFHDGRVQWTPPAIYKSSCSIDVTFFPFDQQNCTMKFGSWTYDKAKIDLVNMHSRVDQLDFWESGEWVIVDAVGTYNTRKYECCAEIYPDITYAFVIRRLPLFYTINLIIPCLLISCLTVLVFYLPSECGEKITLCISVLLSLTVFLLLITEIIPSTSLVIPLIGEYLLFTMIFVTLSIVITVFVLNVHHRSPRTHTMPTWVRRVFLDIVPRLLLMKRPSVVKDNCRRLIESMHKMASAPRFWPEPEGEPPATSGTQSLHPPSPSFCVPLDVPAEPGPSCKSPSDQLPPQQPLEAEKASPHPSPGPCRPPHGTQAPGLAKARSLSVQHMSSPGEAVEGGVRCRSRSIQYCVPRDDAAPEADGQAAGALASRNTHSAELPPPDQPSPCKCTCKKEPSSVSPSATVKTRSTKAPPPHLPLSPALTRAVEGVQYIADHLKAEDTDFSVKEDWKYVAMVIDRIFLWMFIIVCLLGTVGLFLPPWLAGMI
T2 sequence (P17787 26-502): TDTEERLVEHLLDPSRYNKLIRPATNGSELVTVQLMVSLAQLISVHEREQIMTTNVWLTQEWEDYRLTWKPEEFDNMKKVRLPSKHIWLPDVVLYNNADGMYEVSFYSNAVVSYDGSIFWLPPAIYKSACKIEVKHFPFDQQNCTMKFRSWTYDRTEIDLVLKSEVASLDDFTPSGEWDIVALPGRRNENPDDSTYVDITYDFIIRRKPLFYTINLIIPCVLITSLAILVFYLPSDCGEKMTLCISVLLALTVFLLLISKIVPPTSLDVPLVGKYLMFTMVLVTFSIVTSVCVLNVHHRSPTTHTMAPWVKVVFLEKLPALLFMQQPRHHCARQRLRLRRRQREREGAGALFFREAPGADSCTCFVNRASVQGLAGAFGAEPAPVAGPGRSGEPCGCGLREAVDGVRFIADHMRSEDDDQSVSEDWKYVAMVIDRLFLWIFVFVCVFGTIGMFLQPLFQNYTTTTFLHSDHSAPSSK
T7 sequence (P36544 23-502 L270T): as the sequence (P36544 23-502 M283L) above, with L248T, L261M counted along it
T1 sequence (P36544 23-502): as the sequence (P36544 23-502 M283L) above, with L261M counted along it
T4 sequence (Q05941 23-502): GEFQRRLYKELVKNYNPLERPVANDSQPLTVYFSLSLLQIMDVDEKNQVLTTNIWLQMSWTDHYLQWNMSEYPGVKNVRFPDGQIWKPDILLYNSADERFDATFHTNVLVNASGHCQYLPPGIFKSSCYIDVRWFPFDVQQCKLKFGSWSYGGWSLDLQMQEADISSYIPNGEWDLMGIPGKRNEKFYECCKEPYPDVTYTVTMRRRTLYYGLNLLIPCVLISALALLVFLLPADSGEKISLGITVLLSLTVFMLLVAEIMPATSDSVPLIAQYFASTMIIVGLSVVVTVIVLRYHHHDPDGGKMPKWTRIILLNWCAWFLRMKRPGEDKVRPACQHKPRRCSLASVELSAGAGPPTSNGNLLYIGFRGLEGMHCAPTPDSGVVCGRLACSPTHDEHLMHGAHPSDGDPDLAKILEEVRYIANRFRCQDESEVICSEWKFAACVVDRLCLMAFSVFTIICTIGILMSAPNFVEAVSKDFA
T3 sequence (P32297 32-505): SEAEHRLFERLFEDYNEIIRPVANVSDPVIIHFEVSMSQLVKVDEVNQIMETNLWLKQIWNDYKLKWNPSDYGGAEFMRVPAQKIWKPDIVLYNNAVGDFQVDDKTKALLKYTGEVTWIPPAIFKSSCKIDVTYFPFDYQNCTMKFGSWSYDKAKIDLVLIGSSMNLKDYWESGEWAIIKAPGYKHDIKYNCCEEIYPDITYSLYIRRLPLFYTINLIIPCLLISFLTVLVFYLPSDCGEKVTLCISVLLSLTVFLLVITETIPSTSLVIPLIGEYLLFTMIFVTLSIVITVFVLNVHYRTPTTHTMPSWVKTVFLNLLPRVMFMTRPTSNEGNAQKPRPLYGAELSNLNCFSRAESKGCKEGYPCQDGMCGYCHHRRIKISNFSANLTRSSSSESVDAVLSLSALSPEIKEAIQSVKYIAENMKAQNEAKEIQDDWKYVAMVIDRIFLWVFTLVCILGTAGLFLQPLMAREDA
T3 sequence (P30926 22-498): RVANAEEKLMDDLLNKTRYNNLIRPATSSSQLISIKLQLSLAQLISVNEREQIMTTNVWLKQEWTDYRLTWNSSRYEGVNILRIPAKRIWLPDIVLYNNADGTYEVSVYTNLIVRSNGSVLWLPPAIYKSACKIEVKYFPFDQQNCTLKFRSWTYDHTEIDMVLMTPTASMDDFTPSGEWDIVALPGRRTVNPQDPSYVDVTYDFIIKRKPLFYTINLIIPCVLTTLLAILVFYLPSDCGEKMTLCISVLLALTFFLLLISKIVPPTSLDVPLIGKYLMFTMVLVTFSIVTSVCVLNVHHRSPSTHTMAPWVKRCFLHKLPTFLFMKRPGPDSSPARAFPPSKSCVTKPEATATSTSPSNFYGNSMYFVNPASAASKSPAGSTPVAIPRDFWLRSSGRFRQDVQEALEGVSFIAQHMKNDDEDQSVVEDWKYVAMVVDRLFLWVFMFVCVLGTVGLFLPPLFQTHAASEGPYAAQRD

With `COc1ccc(-c2nc(-c3ccc(Br)cc3)nn2-c2ccc(S(N)(=O)=O)cc2)cc1` [TBS-346, 4-(3-(4-bromophenyl)-5-(4-methoxyphenyl)-1H-1,2,4-triazol-1-yl)benzenesulfonamide] the Fold potentiation [1] was 10.5 ± 2.5 fold, the Imax [1] was 0.0 ± 0.0 and the “Effect on rate of desensitisation of acetylcholine-evoked responses” value (“Effect on rate” below) [1] was “minimal changes to desensitisation”. For the same molecule, the “Recovery from desensitisation (reactivation of desensitised receptors)” value (“Recovery from desensitisation” below) [1, 10] was “no detectable responses”, the “% Inhibition” value [2] was 23.1 ± 5.7% and the “% Inhibition” value [3] was 68.4 ± 3.0%. For the same molecule, the Fold potentiation [4] was 8.7 ± 5.3 fold, the “% Inhibition” value [5] was 30.8 ± 15.5% and the “% Inhibition” value [6] was 13.4 ± 7.7%. For the same molecule, the “nH (Hill coefficient)” value [7] was 1.7 ± 0.3, the EC50 [7] was 100 ± 40 nM and the Imax [7] was 0.9 ± 0.1. The “Fold potentiation (maximum peak response compared to acetylcholine alone)” value ([8]; M260L α7) was 2.8 ± 0.6 fold, the “Block of agonist responses to TBS-516 (10 μM)” value [8, 11] was 83.4 ± 4.1% and the “Block of agonist responses to TQS (10 μM)” value [8, 11] was 95.7 ± 1.1%. The “Agonist effect on M260L receptors” value [8] was “no agonist effect”, the Imax ([8]; α7 M260L) was 0.0 ± 0.0 and the “Displacement of [3H]-α-bungarotoxin binding” value (shortened to “Displacement”) [9] was “no significant displacement”. The melting point was 290 to 294 °C.
In the case of `NS(=O)(=O)c1ccc(-n2nc(-c3ccc(Br)cc3)nc2Cc2ccccc2)cc1` [TBS-516, 4-(5-benzyl-3-(4-bromophenyl)-1H-1,2,4-triazol-1-yl)benzenesulfonamide], the Fold potentiation [1] is reported as 11.3 ± 3.1 fold, the Imax [1] is reported as 0.0 ± 0.0 and the “Desensitisation after receptor reactivation” value ([1]; acetylcholine co-applied with compound, period of 30 s) is reported as “no desensitisation was observed”. The “Total net charge transfer relative to initial application of acetylcholine alone” value ([1]; measured during a 30 s application of compound in continued presence of acetylcholine (100 μM)) was 250 ± 71 fold, the “Effect on rate” value [1] was “dramatic slowing of desensitisation” and the “Recovery from desensitisation” value [1, 10] was “caused recovery from desensitisation”. The “Response on reactivation of desensitised receptors relative to response to 100 μM acetylcholine” value [1, 10] was 3.2 ± 0.9 fold, the “% Inhibition” value [2] was 1.7 ± 0.4% and the “% Inhibition” value [3] was 31.1 ± 0.6%. The Fold potentiation [4] was 3.6 ± 1.0 fold, the “% Inhibition” value [5] was 10.4 ± 7.5% and the “% Inhibition” value [6] was 9.2 ± 12.8%. For the same molecule, the “nH (Hill coefficient)” value [7] was 2.5 ± 0.3, the EC50 [7] was 200 ± 40 nM and the Imax [7] was 1.1 ± 0.1. For the same molecule, the “Fold potentiation (maximum peak response compared to acetylcholine alone)” value ([8]; M260L α7) was 8.0 ± 3.1 fold, the “Agonist effect on M260L receptors” value [8] was “converted into agonists” and the “nH (Hill coefficient)” value ([8]; α7 M260L, mean ± SEM) was 1.8 ± 0.3. For the same molecule, the EC50 ([8]; α7 M260L, mean ± SEM, read-out: EC50 (agonist)) was 8900 ± 2500 nM, the Imax ([8]; α7 M260L) was 3.7 ± 0.6 and the “Displacement” value [9] was “no significant displacement”. It also gave a melting point of 203 to 205 °C.
In the case of `CCCc1nc(-c2ccc(Br)cc2)nn1-c1ccc(S(N)(=O)=O)cc1` [TBS-546, 4-(3-(4-bromophenyl)-5-propyl-1H-1,2,4-triazol-1-yl)benzenesulfonamide], the Fold potentiation [1] is reported as 4.7 ± 1.0 fold, the “Effect on rate” value [1] is reported as “intermediate between those of classical type I and type II PAMs” and the “Recovery from desensitisation” value [1, 10] is reported as “no detectable responses”. For the same molecule, the “% Inhibition” value [2] was 20.5 ± 5.9%, the “% Inhibition” value [3] was 9.0 ± 3.5% and the Fold potentiation [4] was 1.9 ± 0.2 fold. The “% Inhibition” value [5] was 15.2 ± 4.3%, the “% Inhibition” value [6] was 26.4 ± 16.0% and the “Fold potentiation (maximum peak response compared to acetylcholine alone)” value ([8]; M260L α7) was 3.6 ± 0.6 fold. The “Agonist effect on M260L receptors” value [8] was “no agonist effect”, the “Displacement” value [9] was “no significant displacement” and the melting point was 204 to 208 °C.
